Laboratory results taken from patent publication US12649750B2, “Macrocyclic compounds, compositions, and methods of using thereof” (Sionna Therapeutics Inc., priority 2022, dated 2026).

What was measured:
NBD1 = target: T1, NBD1 (Homo sapiens, UniProt P13569); test: Aggregation analysis using differential static light scattering (DSLS), thermal stability of NBD1 (ΔTagg); format: binding; conditions: ΔTagg versus DMSO control, NBD1 0.2 mg/ml
T1 construct: Purified recombinant NBD1 was produced using previously described methods; made in house
T1 sequence (P13569 423-646 limits assumed): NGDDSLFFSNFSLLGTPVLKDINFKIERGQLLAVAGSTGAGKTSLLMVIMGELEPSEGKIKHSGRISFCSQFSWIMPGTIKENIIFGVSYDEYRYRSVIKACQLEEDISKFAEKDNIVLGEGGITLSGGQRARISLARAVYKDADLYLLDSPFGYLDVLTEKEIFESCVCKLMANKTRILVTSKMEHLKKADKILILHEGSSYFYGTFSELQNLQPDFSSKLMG
Summary of the method: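 Stabilisation is measured as the shift in aggregation onset of recombinant NBD1 (0.2 mg/ml, 2 mM ATP, 5 mM MgCl2, pH7.6) exposed to compound. Images are taken every 0.5° C. while heating at 1° C. per minute, and the inflection-point Tagg is corrected by the DMSO mean.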

CFTR = target: T2, CFTR (Homo sapiens, UniProt P13569, DEL508-508); test: TECC24 AUC fold over DMSO @10 μM, CFTR-mediated transepithelial chloride transport in CF-HBE cells; format: cell-based; conditions: test agent AUC divided by DMSO vehicle AUC, primary CF-HBE cells, ΔF508 homozygous donor, 48 hours incubation
T2 construct: Primary human bronchial epithelial cells from a ΔF508 homozygous CF donor; host or cells: primary human bronchial epithelial cells (CF-HBE), ΔF508 homozygous donor
T2 sequence (P13569 with tags, fused parts or gaps DEL508-508): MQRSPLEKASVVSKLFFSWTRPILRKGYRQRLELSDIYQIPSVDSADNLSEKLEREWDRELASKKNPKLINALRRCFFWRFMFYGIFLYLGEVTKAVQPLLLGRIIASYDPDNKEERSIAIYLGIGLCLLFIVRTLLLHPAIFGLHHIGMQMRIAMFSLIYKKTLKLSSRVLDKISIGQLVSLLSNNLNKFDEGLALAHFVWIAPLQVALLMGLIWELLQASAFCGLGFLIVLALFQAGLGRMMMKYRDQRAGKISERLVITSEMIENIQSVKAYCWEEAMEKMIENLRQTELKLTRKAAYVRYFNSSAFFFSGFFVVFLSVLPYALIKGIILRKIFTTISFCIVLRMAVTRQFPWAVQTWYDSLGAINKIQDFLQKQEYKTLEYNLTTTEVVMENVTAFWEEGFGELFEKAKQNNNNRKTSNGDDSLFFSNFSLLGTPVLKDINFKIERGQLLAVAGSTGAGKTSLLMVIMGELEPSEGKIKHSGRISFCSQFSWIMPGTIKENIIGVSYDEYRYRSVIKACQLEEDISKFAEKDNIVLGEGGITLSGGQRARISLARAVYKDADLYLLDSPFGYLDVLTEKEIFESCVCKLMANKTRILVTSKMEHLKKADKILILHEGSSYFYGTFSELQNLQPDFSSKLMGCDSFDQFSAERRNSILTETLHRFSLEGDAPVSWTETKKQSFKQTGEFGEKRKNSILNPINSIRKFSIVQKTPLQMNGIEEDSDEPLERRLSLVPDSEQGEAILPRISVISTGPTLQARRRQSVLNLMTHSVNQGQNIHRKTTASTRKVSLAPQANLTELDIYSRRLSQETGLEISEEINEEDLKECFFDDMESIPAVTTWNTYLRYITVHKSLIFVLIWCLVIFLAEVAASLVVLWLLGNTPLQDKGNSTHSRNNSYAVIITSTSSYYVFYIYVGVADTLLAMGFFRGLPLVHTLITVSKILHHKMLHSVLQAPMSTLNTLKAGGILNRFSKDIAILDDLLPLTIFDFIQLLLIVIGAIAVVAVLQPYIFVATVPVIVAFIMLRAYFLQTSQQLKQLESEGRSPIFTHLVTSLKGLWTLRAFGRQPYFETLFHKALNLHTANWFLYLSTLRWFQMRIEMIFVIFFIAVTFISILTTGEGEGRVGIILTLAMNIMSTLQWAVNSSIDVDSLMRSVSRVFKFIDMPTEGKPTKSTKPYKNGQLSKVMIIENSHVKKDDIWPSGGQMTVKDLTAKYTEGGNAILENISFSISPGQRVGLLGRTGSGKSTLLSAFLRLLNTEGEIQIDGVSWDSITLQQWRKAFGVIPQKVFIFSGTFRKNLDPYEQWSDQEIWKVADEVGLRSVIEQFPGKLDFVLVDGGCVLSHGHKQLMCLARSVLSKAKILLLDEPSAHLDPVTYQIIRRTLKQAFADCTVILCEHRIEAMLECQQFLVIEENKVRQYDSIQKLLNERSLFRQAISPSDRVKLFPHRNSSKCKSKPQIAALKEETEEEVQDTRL
Summary of the method: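 Value is ratio of test-agent to DMSO AUC of equivalent transepithelial Cl− current, integrated from forskolin (10 μM) stimulation to CFTR inhibitor-172 (20 μM) block, with benzamil 10 μM present. CF-HBE (ΔF508/ΔF508) cultures had 48 h compound exposure at 10 μM, 36.5° C before recording.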

SMILES	DSLS 3D (100 μM ΔT) (NBD1)	TECC (AUC, 10 μM) (CFTR)
Cn1nc2nc1-c1cc(ccn1)[S+]([O-])c1c(F)cc3[nH]ccc3c1CCS(=O)(=O)CC(C)(C)CCC[C@]2(C)c1cccc(CCC(=O)O)c1F (single isomer, unassigned) [Compound 260B]	B (a value above 5 °C and less than or equal to 10 °C is marked “B”)	A (a TECC value less than 12 is marked “A”)
Cn1nc2nc1-c1cc(ccc1F)[S+]([O-])c1c(F)cc3[nH]ccc3c1CCS(=O)(=O)CC(C)(C)CCC[C@]2(C)c1cccc(CCS(C)(=O)=O)c1 (single isomer, unassigned) [Compound 220B]	C (a value greater than 10 °C and less than or equal to 25 °C is marked “C”)	C (a value between 20 and 80 is marked “C”)
C[C@H](Cc1cccc(C2(C)CCCC(C)(C)CS(=O)(=O)CCc3c(c(F)cc4[nH]ccc34)[S+]([O-])c3ccc(F)c(c3)-c3nc2nn3C)n1)C(=O)O (single isomer, unassigned) [Compound 181C]	A (an ΔTagg value less than or equal to 5 °C is marked “A”)	A (a TECC value less than 12 is marked “A”)
Cn1nc2nc1-c1cc(ccc1F)Oc1c(F)cc3[nH]ccc3c1CCS(=O)(=O)CC(C)(C)CCCC2(C)c1cccc(CCC(=O)O)c1 (racemic) [Compound 56, 3-[3-(22,28-Difluoro-3,6,10,10-tetramethyl-12,12-dioxo-24-oxa-12lambda6-thia-3,4,19,30-tetrazapentacyclo[23.3.1.12,5.015,23.016,20]triaconta-1(29),2(30),4,15,17,20,22,25,27-nonaen-6-yl)phenyl]propanoic acid]	C (a value greater than 10 °C and less than or equal to 25 °C is marked “C”)	A (a TECC value less than 12 is marked “A”)
[2H]C([2H])([2H])C1(c2cccc(CC3(C(=O)O)CC3)c2)CCCC(C)(C)CS(=O)(=O)CCc2c(c(F)cc3[nH]ccc23)Oc2ccc(F)c(c2)-c2nc1nn2C (single isomer, unassigned) [Compound 120B, 1-[[3-[22,28-difluoro-3,10,10-trimethyl-12,12-dioxo-6-(trideuteriomethyl)-24-oxa-12λ6-thia-3,4,19,30-tetrazapentacyclo[23.3.1.12,5.015,23.016,20]triaconta-1(29),2(30),4,15,17,20,22,25,27-nonaen-6-yl]phenyl]methyl]cyclopropanecarboxylic Acid]	A (an ΔTagg value less than or equal to 5 °C is marked “A”)	A (a TECC value less than 12 is marked “A”)
Cn1nc2nc1-c1cc(ccc1F)[S+]([O-])c1c(F)cc3[nH]ccc3c1CCS(=O)(=O)CC(C)(C)CCC[C@]2(C)c1cccc(C[C@H](O)CO)c1 (stereo partly drawn) [Compound 286, (2S)-3-[3-[(6R)-22,28-difluoro-3,6,10,10-tetramethyl-12,12,24-trioxo-12λ6,24λ4-dithia-3,4,19,30-tetrazapentacyclo[23.3.1.12,5.015,23.016,20]triaconta-1(29),2(30),4,15,17,20,22,25,27-nonaen-6-yl]phenyl]propane-1,2-diol]	C (a value greater than 10 °C and less than or equal to 25 °C is marked “C”)	C (a value between 20 and 80 is marked “C”)
Cn1nc2nc1-c1cc(ccc1F)Oc1c(F)cc3[nH]ccc3c1CCS(=O)(=O)CC(C)(C)CCCC2(C)c1cccc(CC2CC(=O)NC2=O)c1 (single isomer, unassigned) [Compound 196B, 3-[[3-(22,28-difluoro-3,6,10,10-tetramethyl-12,12-dioxo-24-oxa-12λ6-thia-3,4,19,30-tetrazapentacyclo[23.3.1.12,5.015,23.016,20]triaconta-1(29),2(30),4,15,17,20,22,25,27-nonaen-6-yl)phenyl]methyl]pyrrolidine-2,5-dione]	A (an ΔTagg value less than or equal to 5 °C is marked “A”)	A (a TECC value less than 12 is marked “A”)
Cn1nc2nc1-c1cc(ccc1F)Oc1c(F)cc3[nH]ccc3c1CCS(=O)(=O)CC1(CCCC2(C)c2cccc(CCC(=O)O)c2)CC1 (single isomer, unassigned) [Compound 12A, 3-[3-(22,28-difluoro-3,6-dimethyl-12,12-dioxo-spiro[24-oxa-12lambda6-thia-3,4,19,30-tetrazapentacyclo[23.3.1.12,5.015,23.016,20]triaconta-1(29),2(30),4,15,17,20,22,25,27-nonaene-10,1′-cyclopropane]-6-yl)phenyl]propanoic Acid]	C (a value greater than 10 °C and less than or equal to 25 °C is marked “C”)	B (a value between 12-20 is marked “B”)
CC(Cc1cccc(C2(C)COCC(C)(C)CS(=O)(=O)CCc3c(c(F)cc4[nH]ccc34)Oc3ccc(F)c(c3)-c3nc2nn3C)c1)C(=O)O (single isomer, unassigned) [Compound 113A]	C (a value greater than 10 °C and less than or equal to 25 °C is marked “C”)	A (a TECC value less than 12 is marked “A”)
Cn1nc2nc1-c1cc(ccc1F)Oc1c(F)c(F)c3[nH]ccc3c1CCS(=O)(=O)CC(C)(C)CCCC2(C#N)c1cccc(CC2(C(=O)O)CC2)c1 (single isomer, unassigned) [Compound 121B, 1-[[3-(6-cyano-21,22,28-trifluoro-3,10,10-trimethyl-12,12-dioxo-24-oxa-12λ6-thia-3,4,19,30-tetrazapentacyclo[23.3.1.12,5.015,23.016,20]triaconta-1(29),2(30),4,15,17,20,22,25,27-nonaen-6-yl)phenyl]methyl]cyclopropanecarboxylic Acid]	A (an ΔTagg value less than or equal to 5 °C is marked “A”)	A (a TECC value less than 12 is marked “A”)
CC1(c2cccc(CCC(=O)O)c2)CCCC2(CC2)CS(=O)(=O)CCc2c(c(F)cc3[nH]ccc23)Oc2ccc(F)c(c2)-c2ncc1[nH]2 (single isomer, unassigned) [Compound 45B, 3-[3-(22,28-difluoro-6-methyl-12,12-dioxo-spiro [24-oxa-12lambda6-thia-3,19,30-triazapentacyclo[23.3.1.12, 5.015,23.016,20]triaconta-1(29),2,4,15,17,20,22,25,27-nonaene-10,1′-cyclopropane]-6-yl)phenyl]propanoic acid]	C (a value greater than 10 °C and less than or equal to 25 °C is marked “C”)	A (a TECC value less than 12 is marked “A”)
C[C@@H](Cc1cccc([C@@]2(C)CCCC(C)(C)CS(=O)(=O)CCc3c(c(F)cc4[nH]ccc34)Oc3cnnc(c3)-c3nc2nn3C)c1)C(=O)O [Compound 256, (2S)-3-[3-[(6R)-22-Fluoro-3,6,10,10-tetramethyl-12,12-dioxo-24-oxa-12λ6-thia-3,4,19,27,28,30-hexazapentacyclo[23.3.1.12,5.015,23.016,20]triaconta-1(29),2(30),4,15,17,20,22,25,27-nonaen-6-yl]phenyl]-2-methyl-propanoic Acid]	C (a value greater than 10 °C and less than or equal to 25 °C is marked “C”)	C (a value between 20 and 80 is marked “C”)
C[C@H](Cc1cccc(C2(C)CCCC(C)(C)CS(=O)(=O)CCc3c(c(F)cc4[nH]ccc34)Oc3ccc(F)c(c3)-c3ccn2n3)c1)C(=O)O (mixture of isomers) [Compound 230, (2R)-3-[3-(22,28-difluoro-6,10,10-trimethyl-12,12-dioxo-24-oxa-12λ6-thia-5,19,30-triazapentacyclo[23.3.1.12,5.015,23.016,20]triaconta-1(29),2(30),3,15,17,20,22,25,27-nonaen-6-yl)phenyl]-2-methyl-propanoic Acid]	C (a value greater than 10 °C and less than or equal to 25 °C is marked “C”)	C (a value between 20 and 80 is marked “C”)
CC(Cc1cccc(C2(C#N)CCCC(C)(C)CS(=O)(=O)CCc3c(c(F)cc4[nH]ccc34)Oc3ccc(F)c(c3)-c3nc2nn3C)c1)C(=O)O (single isomer, unassigned) [Compound 20B, 3-[3-[6-cyano-22,28-difluoro-3,10,10-trimethyl-12,12-dioxo-24-oxa-12lambda6-thia-3,4,19,30-tetrazapentacyclo[23.3.1.12,5.015,23.016,20]triaconta-1(29),2(30),4,15,17,20,22,25,27-nonaen-6-yl]phenyl]-2-methyl-propanoic acid]	A (an ΔTagg value less than or equal to 5 °C is marked “A”)	A (a TECC value less than 12 is marked “A”)
CNC(=O)[C@@H](C)Cc1cccc(C2(C)CCCC(C)(C)CS(=O)(=O)CCc3c(c(F)cc4[nH]ccc34)Oc3ccc(F)c(c3)-c3nc2nn3C)c1 (single isomer, unassigned) [Compound 149]	C (a value greater than 10 °C and less than or equal to 25 °C is marked “C”)	A (a TECC value less than 12 is marked “A”)
